Patent US9498483B2, “2,3,5-trisubstituted thiophene compounds and uses thereof” (priority 2010, dated 2016)

Key:
[1] = test system: HCV replicon I389luc-ubi-neo/NS3-3′/ET in ET (Huh-lucubineo-ET) cells; test: Replicon assay (Biological Example 2), luciferase readout; type: cell-based; settings: Hepatitis C virus
Method in brief: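 EC50 values come from Hill fits of % inhibition of replicon-driven firefly luciferase, relative to no-compound wells. Compounds were serially diluted (10 points, 3-fold, 0.1 nM–50 μM final, 0.5% DMSO) onto ET replicon cells and read after 48 h.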

HCV polymerase = molecular target: T1, HCV polymerase (Hepatitis C virus genotype 1b, UniProt Q9WMX2); test: Polymerase assay of Biological Example 1 (IC50 values of Table 3); type: biochemical; settings: IC50 values of Table 3, polymerase assay of Biological Example 1; read-out: NS5B-enzyme3
T1 construct: (His)6 (C); made in house; host or cells: XL-1 cells (E. coli, by own knowledge)

[2] = ET cells, luciferase activity 48 hours after compound

Structure (SMILES): CCCN(CCC)c1ccc(S(=O)(=O)N2CC(=O)N(c3cc(-c4ccccc4)sc3C(=O)O)C(C3CCCCC3)C2)cn1 (stereo not drawn) [Compound 77, 3-[2-Cyclohexyl-4-(6-dipropylamino-pyridine-3-sulfonyl)-6-oxo-piperazin-1-yl]-5-phenyl-thiophene-2-carboxylic acid]
- IC50 [1, 2]: ≤ 100 nM
- IC50 (HCV polymerase): 3 nM

Structure (SMILES): CC(C)N1CCN(c2ccc(S(=O)(=O)N3CC(=O)N(c4cc(-c5ccccc5)sc4C(=O)O)[C@H](C4CCCCC4)C3)cn2)CC1 [Compound 160, 3-{(R)-2-Cyclohexyl-4-[6-(4-isopropyl-piperazin-1-yl)-pyridine-3-sulfonyl]-6-oxo-piperazin-1-yl}-5-phenyl-thiophene-2-carboxylic acid]
- IC50 [1, 2]: ≤ 100 nM
- IC50 (HCV polymerase): 1 nM

Structure (SMILES): CN(C)[C@@H]1CCN(c2ccc(S(=O)(=O)N3CC(=O)N(c4cc(-c5ccccc5)sc4C(=O)O)[C@H](C4CCCCC4)C3)cn2)C1 [Compound 163, 3-{(R)-2-Cyclohexyl-4-[6-((R)-3-dimethylamino-pyrrolidin-1-yl)-pyridine-3-sulfonyl]-6-oxo-piperazin-1-yl}-5-phenyl-thiophene-2-carboxylic acid]
- IC50 [1, 2]: ≤ 100 nM
- IC50 (HCV polymerase): 1 nM

Structure (SMILES): CC(C)CS(=O)(=O)N1CC(=O)N(c2cc(-c3ccccc3)sc2C(=O)O)C(C2CCCCC2)C1 (stereo not drawn) [Compound 38, 3-[2-Cyclohexyl-4-(2-methyl-propane-1-sulfonyl)-6-oxo-piperazin-1-yl]-5-phenyl-thiophene-2-carboxylic acid]
- IC50 ([1]; between 100 nM and 5.0 uM): 100 to 5000 nM
- IC50 (HCV polymerase): 65 nM

Structure (SMILES): O=C(O)c1sc(-c2ccccc2)cc1N1C(=O)CN(S(=O)(=O)c2cccc3ccccc23)CC1C1CCCCC1 (stereo not drawn) [Compound 110, 3-[2-Cyclohexyl-4-(naphthalene-1-sulfonyl)-6-oxo-piperazin-1-yl]-5-phenyl-thiophene-2-carboxylic acid]
- IC50 [1, 2]: ≥ 5000 nM
- IC50 (HCV polymerase): 183 nM

Structure (SMILES): O=C(O)c1sc(-c2ccc(F)cc2)cc1N1C(=O)CN(S(=O)(=O)c2ccc(N3CCCCCC3)nc2)C[C@H]1C1CCCCC1 [Compound 285, 3-[(R)-4-(6-Azepan-1-yl-pyridine-3-sulfonyl)-2-cyclohexyl-6-oxo-piperazin-1-yl]-5-(4-fluoro-phenyl)-thiophene-2-carboxylic acid]
- IC50 [1, 2]: ≤ 100 nM
- IC50 (HCV polymerase): 2 nM

Structure (SMILES): O=C(O)c1sc(-c2ccccc2)cc1N1C(=O)CN(S(=O)(=O)c2ccc(N3CC4CCC(C3)O4)nc2)C[C@H]1C1CCCCC1 [Compound 216, 3-{(R)-2-Cyclohexyl-4-[6-(8-oxa-3-aza-bicyclo[3.2.1]oct-3-yl)-pyridine-3-sulfonyl]-6-oxo-piperazin-1-yl}-5-phenyl-thiophene-2-carboxylic acid]
- IC50 [1, 2]: ≤ 100 nM
- IC50 (HCV polymerase): 1 nM

Structure (SMILES): O=C(O)c1sc(-c2ccccc2)cc1N1C(=O)COCC1C1CCCCC1 (stereo not drawn) [Compound 13, 3-(3-Cyclohexyl-5-oxo-morphoIin-4-yl)-5-phenyl-thiophene-2-carboxylic acid]
- IC50 ([1]; between 100 nM and 5.0 uM): 100 to 5000 nM
- IC50 (HCV polymerase): 79 nM

Structure (SMILES): CC(C)(C)C#Cc1cc(N2C(=O)C(C)(C)OC[C@H]2C2CCCCC2)c(C(=O)O)s1 [Compound 290, 3-((R)-5-Cyclohexyl-2,2-dimethyl-3-oxomorpholin-4-yl)-5-(3,3-dimethyl-but-1-ynyl)-thiophene-2-carboxylic acid]
- IC50 [1, 2]: ≤ 100 nM
- IC50 (HCV polymerase): 2 nM

Structure (SMILES): Cc1ccc(-c2cc(N3C(=O)CN(S(=O)(=O)c4ccc(N5CCCOCC5)nc4)C[C@H]3C3CCCCC3)c(C(=O)O)s2)cc1 [Compound 188, 3-[(R)-2-Cyclohexyl-4-(6-[1,4]oxazepan-4-yl-pyridine-3-sulfonyl)-6-oxo-piperazin-1-yl]-5-p-tolyl-thiophene-2-carboxylic acid]
- IC50 [1, 2]: ≤ 100 nM
- IC50 (HCV polymerase): 1 nM

Structure (SMILES): CC1CCC(C)N1c1ccc(S(=O)(=O)N2CC(=O)N(c3cc(-c4ccccc4)sc3C(=O)O)C(C3CCCCC3)C2)cn1 (stereo not drawn) [Compound 92, 3-{2-Cyclohexyl-4-[6-(2,5-dimethyl-pyrrolidin-1-yl)-pyridine-3-sulfonyl]-6-oxo-piperazin-1-yl}-5-phenyl-thiophene-2-carboxylic acid]
- IC50 [1, 2]: ≤ 100 nM
- IC50 (HCV polymerase): 4 nM

Structure (SMILES): O=C(O)c1sc(-c2ccccc2)cc1N1C(=O)CN(S(=O)(=O)c2ccc(OC(F)(F)F)cc2)CC1C1CCCCC1 (stereo not drawn) [Compound 53]
- IC50 ([1]; between 100 nM and 5.0 uM): 100 to 5000 nM
- IC50 (HCV polymerase): 24 nM

Structure (SMILES): CC1(O)CCN(c2ccc(S(=O)(=O)N3CC(=O)N(c4cc(-c5ccc(F)cc5)sc4C(=O)O)[C@H](C4CCCCC4)C3)cn2)C1 (stereo partly drawn) [Compound 288, 3-{(R)-2-Cyclohexyl-4-[6-(3-hydroxy-3-methyl-pyrrolidin-1-yl)-pyridine-3-sulfonyl]-6-oxo-piperazin-1-yl}-5-(4-fluoro-phenyl)-thiophene-2-carboxylic acid]
- IC50 [1, 2]: ≤ 100 nM
- IC50 (HCV polymerase): 2 nM

Structure (SMILES): O=C(O)c1sc(-c2ccccc2)cc1N1C(=O)CN(S(=O)(=O)c2ccc(NC3CCOCC3)nc2)CC1C1CCCCC1 (stereo not drawn) [Compound 90, 3-{2-Cyclohexyl-6-oxo-4-[6-(tetrahydro-pyran-4-ylamino)-pyridine-3-sulfonyl]-piperazin-1-yl}-5-phenyl-thiophene-2-carboxylic acid]
- IC50 [1, 2]: ≤ 100 nM
- IC50 (HCV polymerase): 4 nM

Structure (SMILES): Cc1ccc(S(=O)(=O)N2CC(=O)N(c3cc(C#CC(C)(C)C)sc3C(=O)O)C(C3CCCCC3)C2)cc1 (stereo not drawn) [Compound 166, 3-[2-Cyclohexyl-6-oxo-4-(toluene-4-sulfonyl)-piperazin-1-yl]-5-(3,3-dimethyl-but-1-ynyl)-thiophene-2-carboxylic acid]
- IC50 [1, 2]: ≥ 5000 nM
- IC50 (HCV polymerase): 982 nM

Structure (SMILES): CC(C)(C)C#Cc1cc(N2C(=O)COC[C@H]2C2CCCCC2)c(C(=O)O)s1 [Compound 236, 3-((R)-3-Cyclohexyl-5-oxo-morpholin-4-yl)-5-(3,3-dimethyl-but-1-ynyl)-thiophene-2-carboxylic acid]
- IC50 [1, 2]: ≤ 100 nM
- IC50 (HCV polymerase): 3 nM

Structure (SMILES): O=C(O)c1sc(-c2ccccc2)cc1N1C(=O)CN(S(=O)(=O)c2ccc(N3CCCC3)nc2)CC1C1CCCCC1 (stereo not drawn) [Compound 76, 3-[2-Cyclohexyl-6-oxo-4-(6-pyrrolidin-1-yl-pyridine-3-sulfonyl)-piperazin-1-yl]-5-phenyl-thiophene-2-carboxylic acid]
- IC50 [1, 2]: ≤ 100 nM
- IC50 (HCV polymerase): 4 nM

Structure (SMILES): O=C(O)c1sc(-c2ccccc2)cc1N1C(=O)CN(Cc2ccc(N3CCCC3=O)cc2)C[C@H]1C1CCCCC1 [Compound 262, 3-{(R)-2-Cyclohexyl-6-oxo-4-[4-(2-oxo-pyrrolidin-1-yl)-benzyl]-piperazin-1-yl}-5-phenyl-thiophene-2-carboxylic acid]
- IC50 ([1]; between 100 nM and 5.0 uM): 100 to 5000 nM
- IC50 (HCV polymerase): 25 nM

Structure (SMILES): CC(C)(C)c1ccc(S(=O)(=O)N2CC(=O)N(c3cc(-c4ccccc4)sc3C(=O)O)C(C3CCCCC3)C2)cc1 (stereo not drawn) [Compound 105, 3-[4-(4-tert-Butyl-benzenesulfonyl)-2-cyclohexyl-6-oxo-piperazin-1-yl]-5-phenyl-thiophene-2-carboxylic acid]
- IC50 ([1]; between 100 nM and 5.0 uM): 100 to 5000 nM
- IC50 (HCV polymerase): 2 nM

Structure (SMILES): CN(c1ccc(S(=O)(=O)N2CC(=O)N(c3cc(-c4ccccc4)sc3C(=O)O)C(C3CCCCC3)C2)cn1)C1CCCCC1 (stereo not drawn) [Compound 91, 3-{2-Cyclohexyl-4-[6-(cyclohexyl-methyl-amino)-pyridine-3-sulfonyl]-6-oxo-piperazin-1-yl}-5-phenyl-thiophene-2-carboxylic acid]
- IC50 [1, 2]: ≤ 100 nM
- IC50 (HCV polymerase): 12 nM

Structure (SMILES): CC(C)(C)C#Cc1cc(N2C(=O)CN(S(=O)(=O)c3ccc(N4CCOCC4)nc3)CC2C2CCCCC2)c(C(=O)O)s1 (stereo not drawn) [Compound 168, 3-[2-Cyclohexyl-4-(6-morpholin-4-yl-pyridine-3-sulfonyl)-6-oxo-piperazin-1-yl]-5-(3,3-dimethyl-but-1-ynyl)-thiophene-2-carboxylic acid]
- IC50 [1, 2]: ≤ 100 nM
- IC50 (HCV polymerase): 3820 nM

Structure (SMILES): CC(C)(C)C#Cc1cc(N2C(=O)C(CN3CCOCC3)OC[C@H]2C2CCCCC2)c(C(=O)O)s1 (stereo partly drawn) [Compound 310, 3-((R)-5-Cyclohexyl-2-morpholin-4-ylmethyl-3-oxo-morpholin-4-yl)-5-(3,3-dimethyl-but-1-ynyl)-thiophene-2-carboxylic acid]
- IC50 [1, 2]: ≤ 100 nM
- IC50 (HCV polymerase): 4 nM

Structure (SMILES): CN1CCN(c2ccc(S(=O)(=O)N3CC(=O)N(c4cc(-c5ccccc5)sc4C(=O)O)[C@H](C4CCCCC4)C3)cn2)CC1 [Compound 137, 3-{(R)-2-Cyclohexyl-4-[6-(4-methyl-piperazin-1-yl)-pyridine-3-sulfonyl]-6-oxo-piperazin-1-yl}-5-phenyl-thiophene-2-carboxylic acid]
- IC50 [1, 2]: ≤ 100 nM
- IC50 (HCV polymerase): 1.5 nM

Structure (SMILES): O=C(O)c1sc(-c2ccc(F)cc2)cc1N1C(=O)CN(S(=O)(=O)c2ccc(N3CCOCC3)nc2)C[C@H]1C1CCCCC1 [Compound 189, 3-[(R)-2-Cyclohexyl-4-(6-morpholin-4-yl-pyridine-3-sulfonyl)-6-oxo-piperazin-1-yl]-5-(4-fluoro-phenyl)-thiophene-2-carboxylic acid]
- IC50 [1, 2]: ≤ 100 nM
- IC50 (HCV polymerase): 1 nM

Structure (SMILES): Cc1ccc(-c2cc(N3C(=O)CN(S(=O)(=O)c4ccc(C(C)(C)C)nc4)C[C@H]3C3CCCCC3)c(C(=O)O)s2)cc1 [Compound 303, 3-[(R)-4-(6-tert-Butyl-pyridine-3-sulfonyl)-2-cyclohexyl-6-oxo-piperazin-1-yl]-5-p-tolyl-thiophene-2-carboxylic acid]
- IC50 [1, 2]: ≤ 100 nM
- IC50 (HCV polymerase): 4 nM

Structure (SMILES): CN(C)c1ccc(-c2ccc(S(=O)(=O)N3CC(=O)N(c4cc(-c5ccccc5)sc4C(=O)O)[C@H](C4CCCCC4)C3)cn2)cc1 [Compound 203, 3-{(R)-2-Cyclohexyl-4-[6-(4-dimethylamino-phenyl)-pyridine-3-sulfonyl]-6-oxo-piperazin-1-yl}-5-phenyl-thiophene-2-carboxylic acid]
- IC50 [1, 2]: ≤ 100 nM
- IC50 (HCV polymerase): 1 nM

Structure (SMILES): O=C(O)c1sc(-c2ccc(C(F)(F)F)cc2)cc1N1C(=O)CCCC1C1CCCCC1 (stereo not drawn) [Compound 117, 3-(2-Cyclohexyl-6-oxo-piperidin-1-yl)-5-(4-trifluoromethyl-phenyl)-thiophene-2-carboxylic acid]
- IC50 [1, 2]: ≥ 5000 nM
- IC50 (HCV polymerase): 739 nM
